Assay results: the OligoGym collection
These antisense oligonucleotides have a phosphorothioate backbone; sugars and methylation of C are not fully specified.

What follows are sequences tested against TNFRSF1A. Conditions: ASO.
Further: test concentration or dose not given here.

First: GTTCCTTTGTGGCACTTG
Second: TCCCCTCCTCTCTGCTTT
The remaining target (mRNA or protein) (fraction of control) of the first is lower: 0.88 for the first, 0.95 for the second.

Going from GAAGCCTGGAGTGGGACT to GCCAAGTTTCTATTAGTG, the remaining target (mRNA or protein) (fraction of control) rises from 0.52 to 0.9.

Going from AGGAGGGATAAAAGGCAA to GTGCCACCTCTCTGCGGG, the remaining target (mRNA or protein) (fraction of control) rises from 0.78 to at least 1.

Compared with GGTGACAGTTGAGGGTTG, TCCTCCAGGCAGCCCAGC is lower in remaining target (mRNA or protein) (fraction of control): 0.92 for the first, 0.59 for the second.

Going from CTCAGGGCAGTGTGGCAG to AAAGGCTCAGGGACGAAC, the remaining target (mRNA or protein) (fraction of control) rises from 0.39 to 0.58.

First: TCGATTTCCCACAAACAA
Second: ATCCTCGCAAACCACCCA
The remaining target (mRNA or protein) (fraction of control) of the first is higher: 0.99 for the first, 0.71 for the second.

Compared with TCCAGGCTTTTCTTACAG, CATTTGGGCTCAGGGCAG is lower in remaining target (mRNA or protein) (fraction of control): at least 1 for the first, 0.91 for the second.

First: TGAAGGTGGAACTGGGCA
Second: CCGTTGGTAGCGATACAT
The remaining target (mRNA or protein) (fraction of control) of the first is higher: 0.73 for the first, 0.7 for the second.

First: ATCTGAGAAGACTGGGCG
Second: GGACTGAAGCCCAGGGTG
The remaining target (mRNA or protein) (fraction of control) of the first is higher: at least 1 for the first, 0.88 for the second.

AGCGGCAGCAGCAGGTCA and GCCTGGACAGTCATTGTA cannot be ordered by remaining target (mRNA or protein) (fraction of control): at least 1 for the first, at least 1 for the second.

Compared with CACCTGACCCATTTCCTT, CAGTCCGTATCCTGCCCC is higher in remaining target (mRNA or protein) (fraction of control): 0.54 for the first, 0.74 for the second.

Compared with CTCAGGGACGAACCAGGG, GTCCAGGCAGAGGGCACA is lower in remaining target (mRNA or protein) (fraction of control): 0.97 for the first, 0.79 for the second.

First: TCGTGGTCGCTCAGCCCT
Second: TAACATTCTCAATCTGGG
The remaining target (mRNA or protein) (fraction of control) of the first is lower: 0.72 for the first, at least 1 for the second.

First: AGCCGCTCTCACACTCCC
Second: AGGGCAGTGTGGCAGCGG
The remaining target (mRNA or protein) (fraction of control) of the first is higher: 0.64 for the first, 0.47 for the second.

First: AGACTCGGGCATAGAGAT
Second: GCAGAGGGCACAGGAGTG
The remaining target (mRNA or protein) (fraction of control) of the first is higher: at least 1 for the first, 0.76 for the second.

First: TCTTCTCCCTGTCCCCTA
Second: GCAGCAGCAGGTCAGGCA
The remaining target (mRNA or protein) (fraction of control) of the first is higher: 0.87 for the first, 0.63 for the second.

Compared with CTGTCCTCCCACTTCTGA, GCTCCTGCTTGCCCCTGC is lower in remaining target (mRNA or protein) (fraction of control): 0.84 for the first, 0.57 for the second.

Compared with GTCTGAGGTGGTTTTCTG, GCTTGTCCAGGCAGAGGG is higher in remaining target (mRNA or protein) (fraction of control): 0.66 for the first, 0.82 for the second.

Going from CCGCCTCCAGGTCGCCAG to GCAGCCCAGCAGGTCCAT, the remaining target (mRNA or protein) (fraction of control) falls from at least 1 to 0.68.

First: CATTTCCTTTCGGCATTT
Second: ACAGTTGAGGGTTGAGAC
The remaining target (mRNA or protein) (fraction of control) of the first is higher: 0.87 for the first, 0.7 for the second.

Compared with CGCAAACCACCCACTCAG, CAGGAGCACCAGCGGCAG is higher in remaining target (mRNA or protein) (fraction of control): 0.49 for the first, 0.54 for the second.

Going from TCCGTGCTCGCCCCTGCC to GGTTTTCTGAAGCGGTGA, the remaining target (mRNA or protein) (fraction of control) rises from 0.81 to 0.83.

AGGCAGTGTCTGAGGTGG and TCTGAAGCGGTGAAGGAG cannot be ordered by remaining target (mRNA or protein) (fraction of control): at least 1 for the first, at least 1 for the second.

First: TGAGGGTTGAGACTCGGG
Second: CACCAGCGGCAGCAGCAG
The remaining target (mRNA or protein) (fraction of control) of the first is higher: 0.98 for the first, 0.79 for the second.

Compared with ATAGCGTCCCTCATCCTC, GGTTGAGACTCGGGCATA is lower in remaining target (mRNA or protein) (fraction of control): 0.66 for the first, 0.6 for the second.

First: ACTGTGGTGCCTGAGTCC
Second: CTTAGTAGTAGTTCCTTC
The remaining target (mRNA or protein) (fraction of control) of the first is lower: 0.69 for the first, 0.85 for the second.

First: TGCCTTAGGACAGTTCAG
Second: AAAGGCAAAGACCAAAGA
The remaining target (mRNA or protein) (fraction of control) of the first is higher: 0.8 for the first, 0.69 for the second.

Compared with GTGGAACTGGGCACGGGA, GTCAGGCACGGTGGAGAG is higher in remaining target (mRNA or protein) (fraction of control): 0.96 for the first, at least 1 for the second.

First: TATATTCCCACCAACAGC
Second: ACGGTCCCATTGAGGCAG
The remaining target (mRNA or protein) (fraction of control) of the first is higher: 0.75 for the first, 0.66 for the second.

First: GTTAGCACCAAGTAGGCG
Second: AGTAGGTTCCTTTGTGGC
The remaining target (mRNA or protein) (fraction of control) of the first is higher: 0.89 for the first, 0.54 for the second.

Compared with CAATGAAGAGGAGGGATA, CTACAGGAGACACACTCG is lower in remaining target (mRNA or protein) (fraction of control): 0.79 for the first, 0.72 for the second.

Going from AGGCCCCATTGTTCCGTG to GCAGGTCAGGCACGGTGG, the remaining target (mRNA or protein) (fraction of control) falls from at least 1 to 0.84.

First: AGGCTCTGTGGCTTGTGG
Second: ATTATTTTGAGGGTGGAT
The remaining target (mRNA or protein) (fraction of control) of the first is lower: 0.53 for the first, at least 1 for the second.

Compared with AGCTGGAGGTGAAGGTGG, AGCTGAGGCAGTGTCTGA is lower in remaining target (mRNA or protein) (fraction of control): at least 1 for the first, 0.73 for the second.

Going from GCAGTGTGGCAGCGGCAG to TTAAACCAATGAAGAGGA, the remaining target (mRNA or protein) (fraction of control) rises from 0.47 to 0.72.
